Measurements reported in the SangsterLogP compilation.

| Structure (SMILES) | logP |
| --- | --- |
| c1csc(C2(N3CCCCC3)CCCCC2)c1 | 6.02 |
| CO[C@@H]1CCCC[C@]1(c1cccs1)N1CCCCC1 | 4.89 |
| c1ccc(C2(N3CCCCC3)CCCCC2)cc1 | 5.74 |
| C[C@@H]1CC(C)(C)C[C@](c2ccccc2)(N2CCCCC2)C1 | 6.35 |
| C[C@H]1CCCC[C@@]1(c1ccccc1)N1CCCCC1 | 6.75 |
| C[C@H]1CCC[C@](c2ccccc2)(N2CCCCC2)C1 | 5.86 |
| CC1CCC(c2ccccc2)(N2CCCCC2)CC1 (stereo not given) | 5.66 |
| CO[C@H]1CCCC[C@@]1(c1ccccc1)N1CCCCC1 | 4.73 |
| C[C@H]1CCCC[C@@]1(c1cccs1)N1CCCCC1 | 7.29 |
| CC(C)(C)C1CCC(c2ccccc2)(N2CCCCC2)CC1 (stereo not given) | 6.67 |
